Experimental data as given in US5248221A, “Antifouling coating composition comprising lactone compounds, method for protecting aquatic structures, and articles protected against fouling organisms” (Rohm and Haas Company, priority 1992, dated 1993).
≈ marks a conversion by molar mass, not a printed value.

What was measured:
[1] = system: cyprid larvae of the barnacle Balanus amphitrite; experiment: Settlement assay for cyprid-stage barnacle larvae (% settlement)
Procedure: All compounds were tested for their ability to inhibit settlement by cyprid larvae of the barnacle Balanus amphitrite . […] Controls consisted of barnacle larvae and filtered seawater added to the dishes or vials without test compound. Dishes were then incubated for 20-24 hrs at 28° C. with light for approximately 15 hours and in darkness for approximately 9 hours. The dishes or vials were then removed from the incubator, examined under a dissecting microscope to determine whether larvae were living or dead. Larvae were then killed by addition of several drops of 10% formalin solution. Settlement rate was quantified as number of larvae that had attached to the dish or vial surface, expressed as a percentage of total larvae in the dish or vial. Experiments were performed in duplicate.
A number of lactones were tested for control of barnacle settlement. All lactones were tested at a concentration of 3×10^-6 M in dishes containing seawater. The larvae were added and the test conducted as described above.
Five ml of each solution were added to duplicate dishes. The larvae were then added to the dishes and the test conducted as described above.
Aliquots of these solutions were taken and added to duplicate dishes. […] The larvae were then added to the dishes and the test conducted as described above.
A series of solutions of a-angelica lactone in seawater at concentrations ranging from 500 μg/ml to 5 ng/ml were prepared. Aliquots of these solutions were taken and added to duplicate dishes. […] The larvae were then added to the dishes and the test conducted as described above.
A solution of 2-coumaranone (25 μg in 50 ml of filtered, aged seawater) was prepared. The larvae were then added to the dishes and the test conducted as described above.
A series of solutions of γ-decalactone in seawater at concentrations ranging from 500 μg/ml to 5 pg/ml were prepared. Aliquots of these solutions were taken and added to duplicate dishes. […] The larvae were then added to the dishes and the test conducted as described above.
A series of solutions of γ-valerolactone in seawater at concentrations ranging from 500 μg/ml to 500 pg/ml were prepared. Aliquots of these solutions were taken and added to duplicate dishes. […] The larvae were then added to the dishes and the test conducted as described above.

nauplius stage larvae = experiment: whole plant or invertebrate; settings: for LC50: Amphibalanus amphitrite, read-out: ED50 (half-maximal inhibition)
Procedure: Toxicity assays were conducted by adding nauplius stage larvae to 50×5 mm polystyrene Petri dishes or glass vials containing 5 ml of 100 kDa iltered seawater. […] Dishes or vials receiving no test compound served as controls. The dishes or vials were incubated at 28° C. with a 15:9 light:dark cycle. […] The number of living and dead larvae were then counted. Probit analysis was used to obtain concentrations corresponding to half-maximal inhibition (EC50 values).

[2] = Table 1, 3×10^-6 M in seawater, dishes, Control 35

Compound: O=C1Cc2ccccc2O1 [2-coumaranone]
- % Settlement ([1]; Table 6 (Example 6), nominal 5 ng/ml, Control 58): 54%
- % Settlement ([1]; Table 6 (Example 6), nominal 50 ng/ml, Control 58): 61%
- % Settlement ([1]; Table 6 (Example 6), nominal 500 ng/ml, Control 58): 59%
- % Settlement ([1]; Table 6 (Example 6), nominal 5 μg/ml, Control 58): 51%
- % Settlement ([1]; Table 6 (Example 6), nominal 50 μg/ml, Control 58): 64%
- % Settlement ([1]; Table 6 (Example 6), nominal 500 μg/ml, Control 58): 0%

Compound: C=C1C(=O)O[C@@H]2C[C@@]3(C)CCC[C@H](C)C3=C[C@H]12 [alantolactone]
- ED50 (half-maximal inhibition) (nauplius stage larvae; glass): 0.5 µg/mL (≈ 2.15 µM)

Compound: CC1=CCC(=O)O1 [α-angelica lactone]
- % Settlement ([1]; Table 4 (Example 4), 5 ng/ml, Control 62): 62%
- % Settlement ([1]; Table 4 (Example 4), 50 ng/ml, Control 62): 65%
- % Settlement ([1]; Table 4 (Example 4), 500 ng/ml, Control 62): 60%
- % Settlement ([1]; Table 4 (Example 4), 5 μg/ml, Control 62): 54%
- % Settlement ([1]; Table 4 (Example 4), 50 μg/ml, Control 62): 39%
- % Settlement ([1]; Table 4 (Example 4), 500 μg/ml, Control 62): 0%
- % Settlement ([1]; Table 5 (Example 5, second test), 5 ng/ml, Control 66): 41%
- % Settlement ([1]; Table 5 (Example 5, second test), 50 ng/ml, Control 66): 53%
- % Settlement ([1]; Table 5 (Example 5, second test), 500 ng/ml, Control 66): 33%
- % Settlement ([1]; Table 5 (Example 5, second test), 5 μg/ml, Control 66): 33%
- % Settlement ([1]; Table 5 (Example 5, second test), 50 μg/ml, Control 66): 3%
- % Settlement ([1]; Table 5 (Example 5, second test), 500 μg/ml, Control 66): 0%
- LC50 (nauplius stage larvae): 70 µg/mL (≈ 714 µM)

Compound: C=C1CCOC1=O [α-methylene-γ-butyrolactone]
- % Settlement ([1]; Table 2 (Example 2), 5 ng/ml, Control 62): 61%
- % Settlement ([1]; Table 2 (Example 2), 50 ng/ml, Control 62): 62%
- % Settlement ([1]; Table 2 (Example 2), 500 ng/ml, Control 62): 58%
- % Settlement ([1]; Table 2 (Example 2), 5 μg/ml, Control 62): 36%
- % Settlement ([1]; Table 2 (Example 2), 50 μg/ml, Control 62): 0%
- % Settlement ([1]; Table 2 (Example 2), 500 μg/ml, Control 62): 0%
- % Settlement ([1]; Table 3 (Example 3, second test), 50 ng/ml, Control 66): 49%
- % Settlement ([1]; Table 3 (Example 3, second test), 500 ng/ml, Control 66): 53%
- % Settlement ([1]; Table 3 (Example 3, second test), 5 μg/ml, Control 66): 47%
- % Settlement ([1]; Table 3 (Example 3, second test), 50 μg/ml, Control 66): 29%
- % Settlement ([1]; Table 3 (Example 3, second test), 500 μg/ml, Control 66): 5%

Compound: CC1=C2[C@H]3OC(=O)[C@@H](C)[C@@H]3CC[C@@]2(C)C=CC1=O [α-santonin]
- LC50 (nauplius stage larvae): 14 µg/mL (≈ 56.8 µM)

Compound: CCCCCCC1CCC(=O)O1 (stereo not drawn) [γ-decalactone]
- % Settlement [1, 2]: 3%
- % Settlement ([1]; Table 7 (Example 7), 5 pg/ml, Control 66): 45%
- % Settlement ([1]; Table 7 (Example 7), 50 pg/ml, Control 66): 52%
- % Settlement ([1]; Table 7 (Example 7), 500 pg/ml, Control 66): 44%
- % Settlement ([1]; Table 7 (Example 7), 5 ng/ml, Control 66): 32%
- % Settlement ([1]; Table 7 (Example 7), 50 ng/ml, Control 66): 25%
- % Settlement ([1]; Table 7 (Example 7), 500 ng/ml, Control 66): 8%
- % Settlement ([1]; Table 7 (Example 7), 5 μg/ml, Control 66): 25%
- % Settlement ([1]; Table 7 (Example 7), 50 μg/ml, Control 66): 1%
- % Settlement ([1]; Table 7 (Example 7), 500 μg/ml, Control 66): 0%
- LC50 (nauplius stage larvae): 0.004 µg/mL (≈ 0.0235 µM)

Compound: CCCCC1CCC(=O)O1 (stereo not drawn) [γ-octanolactone]
- % Settlement [1, 2]: 39%

Compound: CC1CCC(=O)O1 (stereo not drawn) [γ-valerolactone]
- % Settlement [1, 2]: 26%
- % Settlement ([1]; Table 8 (Example 8), 500 pg/ml, Control 66): 55%
- % Settlement ([1]; Table 8 (Example 8), 5 ng/ml, Control 66): 43%
- % Settlement ([1]; Table 8 (Example 8), 50 ng/ml, Control 66): 42%
- % Settlement ([1]; Table 8 (Example 8), 500 ng/ml, Control 66): 48%
- % Settlement ([1]; Table 8 (Example 8), 5 μg/ml, Control 66): 42%
- % Settlement ([1]; Table 8 (Example 8), 50 μg/ml, Control 66): 37%
- % Settlement ([1]; Table 8 (Example 8), 500 μg/ml, Control 66): 52%

Compound: CCCCCCC1CCCC(=O)O1 (stereo not drawn) [δ-undecalactone, reference compound]
- % Settlement [1, 2]: 40%

Compound: O=C1CCCCCO1 [ε-caprolactone, reference compound]
- % Settlement [1, 2]: 41%
